Measured values: patent publication US12371428B2 (Exelixis, Inc., priority 2019, dated 2025)

Experiments:
[1] = molecular target: Met (phospho-Met, HGF-stimulated PC-3 prostate cancer cells) (Homo sapiens (Human), UniProt P08581); assay: Met autophosphorylation ELISA in PC-3 cells (Example F); assay type: cell-based; details: cellular activity; Met autophosphorylation ELISA in PC-3 cells; read-out: c-Met IC50
Outline: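 Serum-starved (3 h) PC-3 cells were treated 1 h with compounds (8-point curve, 0.3% DMSO), then stimulated with 100 ng/mL human HGF for 10 min. Lysate phospho-Met (panTyr) was measured by sandwich ELISA, normalised to DMSO and reference-inhibitor controls. IC50 came from 4-parameter logistic fit.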

[2] = molecular target: Human MER (residues 528-999) (Homo sapiens (Human), UniProt Q12866); assay: Human Mer kinase assay, HTRF KinEase (Example C-2); assay type: biochemical
Human MER (residues 528-999), sequence (Q12866 528-999): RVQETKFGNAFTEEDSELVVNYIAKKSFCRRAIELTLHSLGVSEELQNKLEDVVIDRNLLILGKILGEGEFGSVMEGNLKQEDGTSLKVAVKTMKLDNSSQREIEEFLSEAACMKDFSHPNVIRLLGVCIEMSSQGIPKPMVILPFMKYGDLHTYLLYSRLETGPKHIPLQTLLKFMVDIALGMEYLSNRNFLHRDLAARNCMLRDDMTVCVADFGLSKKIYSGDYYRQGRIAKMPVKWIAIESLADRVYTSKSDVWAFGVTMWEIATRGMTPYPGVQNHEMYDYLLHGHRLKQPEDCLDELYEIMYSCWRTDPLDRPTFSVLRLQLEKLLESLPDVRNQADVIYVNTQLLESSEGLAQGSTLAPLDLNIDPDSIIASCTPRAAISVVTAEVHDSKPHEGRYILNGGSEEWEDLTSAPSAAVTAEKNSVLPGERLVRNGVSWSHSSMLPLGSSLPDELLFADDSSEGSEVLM
Outline: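 IC50 values from 10 concentrations via 4-parameter logistic fit of […], with DMSO as 100% and 1 μM reference compound as 0% activity. Reaction: MER kinase domain 528-999, 1 ng/well, 40 μM ATP (Km), biotin peptide, 5 mM MgCl2, 1 mM DTT, 3% DMSO, room temperature 60 min; HTRF streptavidin-XL665/Eu-antibody detection.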

[3] = protocol of Example C-2 (other compounds)

Met (phospho-Met, HGF-stimulated PC-3 prostate cancer cells), sequence (P08581 25-1390): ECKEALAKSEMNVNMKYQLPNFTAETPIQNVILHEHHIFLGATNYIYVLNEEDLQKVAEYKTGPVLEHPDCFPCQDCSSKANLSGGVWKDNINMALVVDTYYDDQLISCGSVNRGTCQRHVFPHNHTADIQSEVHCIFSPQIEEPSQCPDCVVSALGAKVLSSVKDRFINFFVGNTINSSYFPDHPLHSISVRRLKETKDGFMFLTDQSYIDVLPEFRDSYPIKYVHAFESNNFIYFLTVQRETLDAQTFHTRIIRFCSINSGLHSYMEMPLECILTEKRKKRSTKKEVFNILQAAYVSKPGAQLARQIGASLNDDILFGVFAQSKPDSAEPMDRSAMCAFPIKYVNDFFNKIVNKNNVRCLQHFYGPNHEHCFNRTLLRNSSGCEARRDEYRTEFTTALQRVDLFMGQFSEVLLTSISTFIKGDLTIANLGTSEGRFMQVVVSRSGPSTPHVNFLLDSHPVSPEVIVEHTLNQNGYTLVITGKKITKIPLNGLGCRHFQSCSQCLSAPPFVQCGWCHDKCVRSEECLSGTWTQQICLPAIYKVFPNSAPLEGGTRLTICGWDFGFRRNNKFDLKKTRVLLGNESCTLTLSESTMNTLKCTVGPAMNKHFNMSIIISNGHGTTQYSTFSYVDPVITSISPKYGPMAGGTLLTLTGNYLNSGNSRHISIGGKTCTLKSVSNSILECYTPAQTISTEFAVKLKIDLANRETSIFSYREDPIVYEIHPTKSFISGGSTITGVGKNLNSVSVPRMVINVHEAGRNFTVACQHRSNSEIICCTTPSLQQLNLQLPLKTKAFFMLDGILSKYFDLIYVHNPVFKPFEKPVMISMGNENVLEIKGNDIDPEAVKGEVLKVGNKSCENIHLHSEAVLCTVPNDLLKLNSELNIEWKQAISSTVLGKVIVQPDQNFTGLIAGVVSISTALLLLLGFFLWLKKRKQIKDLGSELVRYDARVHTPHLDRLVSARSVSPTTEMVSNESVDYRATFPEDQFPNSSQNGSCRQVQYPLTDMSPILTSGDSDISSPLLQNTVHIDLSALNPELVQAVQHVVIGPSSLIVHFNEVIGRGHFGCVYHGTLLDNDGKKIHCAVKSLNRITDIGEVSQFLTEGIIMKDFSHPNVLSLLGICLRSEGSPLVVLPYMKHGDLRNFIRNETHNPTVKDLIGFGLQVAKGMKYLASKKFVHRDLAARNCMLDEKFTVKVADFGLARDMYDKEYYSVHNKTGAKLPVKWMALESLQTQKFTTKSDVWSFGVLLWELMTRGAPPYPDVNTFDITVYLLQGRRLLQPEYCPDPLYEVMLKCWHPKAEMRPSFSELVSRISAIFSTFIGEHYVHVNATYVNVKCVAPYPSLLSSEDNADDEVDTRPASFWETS

SMILES	IC50 [1] [nM]	IC50 [2, 3] [nM]	IC50 ([2]; protocol of Example C-2) [nM]
COc1cc2ncnc(Oc3ccc(NC(=O)c4c5n(cc(-c6ccc(F)cc6)c4=O)CCC5)cc3F)c2cc1OC [Compound 406, N-[4-(6,7-dimethoxyquinazolin-4-yl)oxy-3-fluorophenyl]-6-(4-fluorophenyl)-7-oxo-2,3-dihydro-1H-indolizine-8-carboxamide]	< 100	< 100	
C=C(C)c1cnc2c(Oc3ccc(NC(=O)c4cnc(C)c(-c5ccc(F)cc5C)c4O)cc3F)ccnc2c1 [Compound 450, 5-(4-fluoro-2-methylphenyl)-N-[3-fluoro-4-[(7-prop-1-en-2-yl-1,5-naphthyridin-4-yl)oxy]phenyl]-4-hydroxy-6-methylpyridine-3-carboxamide]	< 100		< 100
COc1cc2nccc(Oc3ccc(NC(=O)c4cn(C)c(C(=O)O)c(-c5ccc(F)cc5)c4=O)cc3F)c2nc1OC [Compound 553, 5-[[4-[(6,7-Dimethoxy-1,5-naphthyridin-4-yl)oxy]-3-fluorophenyl]carbamoyl]-3-(4-fluorophenyl)-1-methyl-4-oxopyridine-2-carboxylic acid]	< 100		< 100
C=C(C)c1cnc2c(Oc3ccc(NC(=O)c4c(C)nc(C)c(-c5ccc(F)cc5)c4O)cc3F)ccnc2c1 [Compound 451, 5-(4-fluorophenyl)-N-[3-fluoro-4-[(7-prop-1-en-2-yl-1,5-naphthyridin-4-yl)oxy]phenyl]-4-hydroxy-2,6-dimethylpyridine-3-carboxamide]	< 100		< 100
COc1nc2c(Oc3ccc(NC(=O)c4cnc(C)c(-c5ccc(F)cc5C)c4O)cc3F)ccnc2cc1C [Compound 460, N-[3-fluoro-4-[(6-methoxy-7-methyl-1,5-naphthyridin-4-yl)oxy]phenyl]-5-(4-fluoro-2-methylphenyl)-4-hydroxy-6-methylpyridine-3-carboxamide]	< 100		< 100
COc1cc2nccc(Oc3ccc(NC(=O)c4c(C)nc(C)c(-c5ccc(F)cc5)c4O)cc3F)c2nc1OC [Compound 154, N-[4-[(6,7-Dimethoxy-1,5-naphthyridin-4-yl)oxy]-3-fluorophenyl]-5-(4-fluorophenyl)-4-hydroxy-2,6-dimethylpyridine-3-carboxamide]	< 100	< 100	
COc1cc2nccc(Oc3ccc(NC(=O)c4cnc(COC(C)=O)c(-c5ccc(F)cc5)c4O)cc3F)c2nc1OC [Compound 544, [5-[[4-[(6,7-dimethoxy-1,5-naphthyridin-4-yl)oxy]-3-fluorophenyl]carbamoyl]-3-(4-fluorophenyl)-4-hydroxypyridin-2-yl]methyl acetate]	< 100		< 100
COc1cc2nccc(Oc3ccc(NC(=O)c4cc(C)nn(-c5ccc(F)cc5)c4=O)cc3)c2nc1OC [Compound 520, N-[4-[(6,7-dimethoxy-1,5-naphthyridin-4-yl)oxy]phenyl]-2-(4-fluorophenyl)-6-methyl-3-oxopyridazine-4-carboxamide]	< 100		< 100
COc1ccc2nccc(Oc3ccc(NC(=O)c4cn(C)c(CF)c(-c5ccc(F)cc5)c4=O)cc3F)c2n1 [Compound 561, N-[3-Fluoro-4-[(6-methoxy-1,5-naphthyridin-4-yl)oxy]phenyl]-6-(fluoromethyl)-5-(4-fluorophenyl)-1-methyl-4-oxopyridine-3-carboxamide]	< 100		< 100
COc1cc2nccc(Oc3ccc(NC(=O)c4nn(C)c(C)c(-c5ccc(F)cc5C)c4=O)cc3F)c2nc1OC [Compound 512, N-[4-[(6,7-dimethoxy-1,5-naphthyridin-4-yl)oxy]-3-fluorophenyl]-5-(4-fluoro-2-methylphenyl)-1,6-dimethyl-4-oxopyridazine-3-carboxamide]	< 100		< 100
CCn1cc(C(=O)Nc2ccc(Oc3ccnc4cc(OC)c(OC)nc34)cc2)c(=O)c(-c2ccc(F)cc2)c1CF [Compound 558, N-[4-[(6,7-Dimethoxy-1,5-naphthyridin-4-yl)oxy]phenyl]-1-ethyl-6-(fluoromethyl)-5-(4-fluorophenyl)-4-oxopyridine-3-carboxamide]	< 100		< 100
COc1cc2nccc(Oc3ccc(NC(=O)c4ccc(C)n(-c5ccc(F)cc5)c4=O)cc3F)c2nc1OC [Compound 254, N-[4-[(6,7-Dimethoxy-1,5-naphthyridin-4-yl)oxy]-3-fluorophenyl]-1-(4-fluorophenyl)-6-methyl-2-oxopyridine-3-carboxamide]	< 100	< 100	
CCc1nc(C)c(-c2ccc(F)cc2)c(O)c1C(=O)Nc1ccc(Oc2ccnc3ccc(OC)nc23)cc1 [Compound 509, 2-ethyl-5-(4-fluorophenyl)-4-hydroxy-N-[4-[(6-methoxy-1,5-naphthyridin-4-yl)oxy]phenyl]-6-methylpyridine-3-carboxamide]	< 100		< 100
COCCOc1cc2nccc(Oc3ccc(NC(=O)c4c(COC)nc(C)c(-c5ccc(F)cc5)c4O)cc3F)c2nc1OC [Compound 482, N-[3-fluoro-4-[[6-methoxy-7-(2-methoxyethoxy)-1,5-naphthyridin-4-yl]oxy]phenyl]-5-(4-fluorophenyl)-4-hydroxy-2-(methoxymethyl)-6-methylpyridine-3-carboxamide]	< 100		< 100
C=C(C)c1cnc2c(Oc3ccc(NC(=O)c4cnc(C)c(-c5ccc(F)cc5C)c4O)cc3)ccnc2c1 [Compound 448, 5-(4-fluoro-2-methylphenyl)-4-hydroxy-6-methyl-N-[4-[(7-prop-1-en-2-yl-1,5-naphthyridin-4-yl)oxy]phenyl]pyridine-3-carboxamide]	< 100		< 100
COc1cnc2c(Oc3ccc(NC(=O)c4cc(C)nn(-c5ccc(F)cc5)c4=O)cc3)ccnc2c1 [Compound 522, 2-(4-fluorophenyl)-N-[4-[(7-methoxy-1,5-naphthyridin-4-yl)oxy]phenyl]-6-methyl-3-oxopyridazine-4-carboxamide]	< 100		100 to 300
Cc1ccc2nccc(Oc3ccc(NC(=O)c4c(C)nc(C)c(-c5ccc(F)cc5C)c4O)cc3F)c2n1 [Compound 506, N-[3-fluoro-4-[(6-methyl-1,5-naphthyridin-4-yl)oxy]phenyl]-5-(4-fluoro-2-methylphenyl)-4-hydroxy-2,6-dimethylpyridine-3-carboxamide]	< 100		< 100
COc1cc2nccc(Oc3ccc(NC(=O)c4c(C)nc(C)c(-c5ccc(F)cc5CO)c4O)cc3F)c2nc1OC [Compound 518, N-[4-[(6,7-dimethoxy-1,5-naphthyridin-4-yl)oxy]-3-fluorophenyl]-5-[4-fluoro-2-(hydroxymethyl]phenyl]-4-hydroxy-2,6-dimethylpyridine-3-carboxamide]	< 100		< 100
COc1cnc2c(Oc3ccc(NC(=O)c4nn(C)c(C)c(-c5ccc(F)cc5C)c4=O)cc3)ccnc2c1 [Compound 514, 5-(4-fluoro-2-methylphenyl)-N-[4-[(7-methoxy-1,5-naphthyridin-4-yl)oxy]phenyl]-1,6-dimethyl-4-oxopyridazine-3-carboxamide]	< 100		< 100
COCc1nc(C)c(-c2ccc(F)cc2)c(O)c1C(=O)Nc1ccc(Oc2ccnc3ccc(OC)nc23)cc1 [Compound 510, 5-(4-fluorophenyl)-4-hydroxy-2-(methoxymethyl)-N-[4-[(6-methoxy-1,5-naphthyridin-4-yl)oxy]phenyl]-6-methylpyridine-3-carboxamide]	< 100		< 100
COc1cc2nccc(Oc3ccc(NC(=O)c4cn(CC(F)(F)F)c(C)c(-c5ccc(F)cc5)c4=O)cc3)c2cc1OC [Compound 260, N-[4-(6,7-Dimethoxyquinolin-4-yl)oxyphenyl]-5-(4-fluorophenyl)-6-methyl-4-oxo-1-(2,2,2-trifluoroethyl)pyridine-3-carboxamide]	100 to 300	< 100	
COc1ccc2nccc(Oc3ccc(NC(=O)c4c(C)n(C)cc(-c5ccc(F)cc5C)c4=O)cc3F)c2n1 [Compound 483, N-[3-fluoro-4-[(6-methoxy-1,5-naphthyridin-4-yl)oxy]phenyl]-5-(4-fluoro-2-methylphenyl)-1,2-dimethyl-4-oxopyridine-3-carboxamide]	< 100		100 to 300
C=C(C)c1cnc2c(Oc3ccc(NC(=O)c4cnc(C)c(-c5ccc(F)cc5)c4O)cc3F)ccnc2c1 [Compound 456, 5-(4-fluorophenyl)-N-[3-fluoro-4-[(7-prop-1-en-2-yl-1,5-naphthyridin-4-yl)oxy]phenyl]-4-hydroxy-6-methylpyridine-3-carboxamide]	< 100		< 100
C=C(C)c1cnc2c(Oc3ccc(NC(=O)c4cnc(C)c(-c5ccc(F)cc5)c4O)cc3)ccnc2c1 [Compound 454, 5-(4-fluorophenyl)-4-hydroxy-6-methyl-N-[4-[(7-prop-1-en-2-yl-1,5-naphthyridin-4-yl)oxy]phenyl]pyridine-3-carboxamide]	< 100		< 100
COCCOc1ccc2nccc(Oc3ccc(NC(=O)c4c(C)nc(C)c(-c5ccc(F)cc5)c4O)cc3F)c2n1 [Compound 349, N-[3-fluoro-4-[[6-(2-methoxyethoxy)-1,5-naphthyridin-4-yl]oxy]phenyl]-5-(4-fluorophenyl)-4-hydroxy-2,6-dimethylpyridine-3-carboxamide]	< 100	< 100	
